The record followed here is BindingDB's records for doi:10.1021/jm8005433 (A* Star, 2008).

Bounds are passed on as bounds.

By IC50 is commonly meant the point on the concentration scale where inhibition reaches its midpoint.

Chain of Bcl-2-like protein 1 (Q07817 whole entry): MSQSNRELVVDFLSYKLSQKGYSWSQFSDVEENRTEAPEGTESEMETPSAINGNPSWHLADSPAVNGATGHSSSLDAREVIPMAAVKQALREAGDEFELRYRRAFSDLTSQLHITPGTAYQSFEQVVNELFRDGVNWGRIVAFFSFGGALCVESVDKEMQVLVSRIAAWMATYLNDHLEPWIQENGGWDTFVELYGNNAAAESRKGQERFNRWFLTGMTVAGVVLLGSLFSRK

In the assay the target is Bcl-2-like protein 1 (Homo sapiens, UniProt Q07817). Put plainly: Fluorescence Polarization Assay. The note with it: pH 8; 22 °C. The protocol:
In the fluorescence polarization assay, the Bcl-XL protein is incubated with a fluorescein-tagged Bak-BH3 peptide. The Bcl-XL:Bak-BH3 peptide complex is then titrated with the test compounds, and the displacement of the Bak-BH3 peptide is measured as a function of decreasing polarized fluorescence. The fluorescence polarization values were determined using a Tecan GeniosPro plate reader using the excitation/emission wavelengths 485/535 nm. The binding affinities are reported as the inhibitory concentration of the titrant required to displace 50% of the Bak-BH3 peptide (IC50).
(In general: Polarisation of emitted light reports the rotation of a fluorescent probe.)
On to `COc1ccc2c(c[n+](C)c3c4cc5c(cc4ccc23)OCO5)c1OC`, for which 100 µM corresponded to half-maximal inhibition (IC50). Under `C[n+]1cc2c3c(ccc2c2ccc4cc5c(cc4c21)OCO5)OCO3` stands 19 µM; under `COc1ccc2c(c[n+](C)c3ccc(CO)cc23)c1OC` [2-(hydroxymethyl)-7,8-dimethoxy-5-methylphenanthridin-5-ium chloride], above 100 µM. With `C[n+]1cc2c3c(ccc2c2cc(CCO)ccc21)OCO3` [4-(2-hydroxyethyl)-8-methyl-12,14-dioxa-8-azatetracyclo[8.7.0.0^{2,7}.0^{11,15}]heptadeca-1(10),2(7),3,5,8,11(15),16-heptaen-8-ium chloride] the figure was 3 µM; with `COCCc1ccc2c(c1)c1ccc3c(c1c[n+]2C)OCO3` [4-(2-methoxyethyl)-8-methyl-12,14-dioxa-8-azatetracyclo[8.7.0.0^{2,7}.0^{11,15}]heptadeca-1(10),2(7),3,5,8,11(15),16-heptaen-8-ium chloride], 6 µM; with `C[n+]1cc2c3c(ccc2c2cc(CO)ccc21)OCO3` [4-(hydroxymethyl)-8-methyl-12,14-dioxa-8-azatetracyclo[8.7.0.0^{2,7}.0^{11,15}]heptadeca-1(10),2(7),3,5,8,11(15),16-heptaen-8-ium chloride], 11 µM. Under `COCc1ccc2c(c1)c1ccc3c(c1c[n+]2C)OCO3` [4-(methoxymethyl)-8-methyl-12,14-dioxa-8-azatetracyclo[8.7.0.0^{2,7}.0^{11,15}]heptadeca-1(10),2(7),3,5,8,11(15),16-heptaen-8-ium chloride] stands 11 µM; under `Cn1cc2c(=O)c(O)ccc-2c2cc(CCO)ccc21` [7,8-dihydroxy-2-(2-hydroxyethyl)-5-methylphenanthridin-5-ium chloride], 22 µM; under `Cn1cc2c(=O)c(O)ccc-2c2cc(CO)ccc21` [7,8-dihydroxy-2-(hydroxymethyl)-5-methylphenanthridin-5-ium chloride], 20 µM.

`Cn1cc2c(=O)c(O)ccc-2c2ccccc21` [7,8-dihydroxy-5-methylphenanthridin-5-ium chloride] registered an IC50 of 18 µM. `COc1ccc2c(c[n+](C)c3ccccc23)c1OC` [7,8-dimethoxy-5-methylphenanthridin-5-ium iodide] had an IC50 above 100 µM. With `COc1ccc2c(c[n+]([O-])c3ccccc23)c1OC` [7,8-dimethoxy-5-oxidophenanthridin-5-ium] the figure was above 100 µM; with `C[n+]1cc2c3c(ccc2c2ccccc21)OC(C)(C)O3` [8,13,13-trimethyl-12,14-dioxa-8-azatetracyclo[8.7.0.0^{2,7}.0^{11,15}]heptadeca-1(10),2(7),3,5,8,11(15),16-heptaen-8-ium iodide], above 100 µM. In turn, `C[n+]1cc2c3c(ccc2c2ccccc21)OCO3` [8-methyl-12,14-dioxa-8-azatetracyclo[8.7.0.0^{2,7}.0^{11,15}]heptadeca-1(10),2(7),3,5,8,11(15),16-heptaen-8-ium iodide] had an IC50 of 12 µM. `[O-][n+]1cc2c3c(ccc2c2ccccc21)OCO3` [8-oxido-12,14-dioxa-8-azatetracyclo[8.7.0.0^{2,7}.0^{11,15}]heptadeca-1(10),2(7),3,5,8,11(15),16-heptaen-8-ium] had an IC50 above 100 µM.

Take `CC1(C)Oc2ccc3c(c[n+]([O-])c4ccccc34)c2O1` [13,13-dimethyl-8-oxido-12,14-dioxa-8-azatetracyclo[8.7.0.0^{2,7}.0^{11,15}]heptadeca-1(10),2(7),3,5,8,11(15),16-heptaen-8-ium]: the IC50 was above 100 µM.
